{
  "source": "ChEMBL document CHEMBL3044967",
  "about": "“Synthesis, biological evaluation, and molecular modeling studies of new 1,3,4-oxadiazole- and 1,3,4-thiadiazole-substituted 4-oxo-4H-pyrido[1,2-a]pyrimidines as anti-HIV-1 agents” (Med Chem Res, 2013)",
  "key": {"[1]": {"assay": "Cytotoxicity against Homo sapiens (human) HeLa cells infected with HIV-1 NL4-3 assessed as cell viability at 100 uM by XTT assay", "format": "cell-based", "conditions": "read-out: Activity"}, "[2]": {"tested_on": "Human immunodeficiency virus 1", "assay": "Antiviral activity against Human immunodeficiency virus 1 NL4-3 infected human HeLa cells assessed as decrease in P24 expression at 100 uM after 72 hr by single cycle replication assay", "format": "functional", "conditions": "Human immunodeficiency virus 1, NL4-3, HeLa"}},
  "data": [
    {"smiles": "O=c1c(-c2nnc(-c3ccc(Cl)cc3)o2)cnc2ccccn12", "values": [
      {"measurement": "viability at 100 µM", "setting": "[1]", "result": 94, "unit": "%"},
      {"measurement": "inhibition at 100 µM", "setting": "[2]", "result": 26, "unit": "%"}
    ]},
    {"smiles": "Nc1nnc(-c2cnc3ccccn3c2=O)o1", "values": [
      {"measurement": "viability at 100 µM", "setting": "[1]", "result": 96, "unit": "%"}
    ]},
    {"smiles": "O=c1c(-c2nnc(S)o2)cnc2ccccn12", "values": [
      {"measurement": "viability at 100 µM", "setting": "[1]", "result": 100, "unit": "%"},
      {"measurement": "inhibition at 100 µM", "setting": "[2]", "result": 11, "unit": "%"}
    ]},
    {"smiles": "O=c1c(-c2nnc(-c3ccccc3)o2)cnc2ccccn12", "values": [
      {"measurement": "viability at 100 µM", "setting": "[1]", "result": 98, "unit": "%"}
    ]},
    {"smiles": "O=c1c(-c2nnc(-c3ccc(F)cc3)o2)cnc2ccccn12", "values": [
      {"measurement": "viability at 100 µM", "setting": "[1]", "result": 100, "unit": "%"},
      {"measurement": "inhibition at 100 µM", "setting": "[2]", "result": 18, "unit": "%"}
    ]},
    {"smiles": "COc1ccc(-c2nnc(-c3cnc4ccccn4c3=O)o2)cc1", "values": [
      {"measurement": "viability at 100 µM", "setting": "[1]", "result": 100, "unit": "%"}
    ]},
    {"smiles": "Cc1ccc(-c2nnc(-c3cnc4ccccn4c3=O)o2)cc1", "values": [
      {"measurement": "viability at 100 µM", "setting": "[1]", "result": 94, "unit": "%"},
      {"measurement": "inhibition at 100 µM", "setting": "[2]", "result": 29, "unit": "%"}
    ]},
    {"smiles": "O=c1c(-c2nnc(-c3ccccc3)s2)cnc2ccccn12", "values": [
      {"measurement": "viability at 100 µM", "setting": "[1]", "result": 100, "unit": "%"},
      {"measurement": "inhibition at 100 µM", "setting": "[2]", "result": 33, "unit": "%"}
    ]},
    {"smiles": "O=c1c(-c2nnc(-c3ccc(F)cc3)s2)cnc2ccccn12", "values": [
      {"measurement": "viability at 100 µM", "setting": "[1]", "result": 92, "unit": "%"},
      {"measurement": "inhibition at 100 µM", "setting": "[2]", "result": 48, "unit": "%"}
    ]},
    {"smiles": "O=c1c(-c2nnc(-c3ccc(Cl)cc3)s2)cnc2ccccn12", "values": [
      {"measurement": "viability at 100 µM", "setting": "[1]", "result": 95, "unit": "%"},
      {"measurement": "inhibition at 100 µM", "setting": "[2]", "result": 39, "unit": "%"}
    ]},
    {"smiles": "COc1ccc(-c2nnc(-c3cnc4ccccn4c3=O)s2)cc1", "values": [
      {"measurement": "viability at 100 µM", "setting": "[1]", "result": 97, "unit": "%"},
      {"measurement": "inhibition at 100 µM", "setting": "[2]", "result": 28, "unit": "%"}
    ]},
    {"smiles": "Cc1ccc(-c2nnc(-c3cnc4ccccn4c3=O)s2)cc1", "values": [
      {"measurement": "viability at 100 µM", "setting": "[1]", "result": 93, "unit": "%"},
      {"measurement": "inhibition at 100 µM", "setting": "[2]", "result": 51, "unit": "%"}
    ]},
    {"smiles": "Cc1cn([C@H]2C[C@H](N=[N+]=[N-])[C@@H](CO)O2)c(=O)[nH]c1=O", "note": "[ZIDOVUDINE]", "values": [
      {"measurement": "viability at 100 µM", "setting": "[1]", "result": 100, "unit": "%"},
      {"measurement": "inhibition at 100 µM", "setting": "[2]", "result": 100, "unit": "%"}
    ]}
  ]
}
